Values of other authors in patent US20030054382A1, “Infection of eukaryotic cells with viruses in vitro” (priority 1999, published 2003).

Tested on: HCV
Settings: pretreatment of the cells to be infected

Substance: dextran sulfate
- attachment of HCV to the cell surface and infection of the cells: inhibits the attachment of HCV to the cell surface and prevents any infection of the cells
